Measured values reported in patent US12461089B2, “Olfactory receptor involved in the perception of musk fragrance and the use thereof” (ChemoSensoryX Biosciences SA, priority 2017, dated 2025).

How the values were obtained:
Assay type in all cases: cell-based
OR2A5 = target: T1, OR2A5 (Homo sapiens, UniProt Q96R48, A202S/A255T/I126V); assay: Luciferase reporter concentration-response analysis on OR2A5; settings: CRE-luciferase
T1 construct: expressed in transfected cells; host or cells: HEK293T-RTP1A1/RTP2
T1 sequence (Q96R48 1-311 I126V/A202S/A255T): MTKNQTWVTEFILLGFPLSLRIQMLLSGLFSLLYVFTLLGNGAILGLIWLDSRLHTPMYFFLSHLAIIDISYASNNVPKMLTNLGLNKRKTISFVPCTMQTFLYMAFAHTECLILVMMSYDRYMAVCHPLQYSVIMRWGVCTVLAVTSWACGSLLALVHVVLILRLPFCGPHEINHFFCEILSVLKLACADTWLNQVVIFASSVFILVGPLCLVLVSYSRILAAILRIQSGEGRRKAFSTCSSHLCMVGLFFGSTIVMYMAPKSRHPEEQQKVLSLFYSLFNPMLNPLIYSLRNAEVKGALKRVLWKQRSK
Experimental: HEK293T-RTP1A1/RTP2 cells were maintained in minimal essential medium (EMEM, Lonza) containing 10% fetal bovine serum (M10). These cells were generated by transfecting HEK293T with an expression vector containing the sequences of the chaperone proteins RTP1A1 and RTP2 and a resistance gene to puromycin, using Lipofectamine 2000. The recombinant cell population, used in these experiments, was selected by adding 10 μg/ml of puromycin into the culture medium and subsequently subcloned (WO 2014/191047 A1).
(§1) Odorant molecules were diluted at a concentration of 1 mole/liter (M) into dimethyl sulfoxide (DMSO) to generate stock solutions.
(§2) For concentration-response analysis, serial dilutions of the tested molecules were prepared from stock solutions in EMEM plated into 96-well plates.
(§3) For the initial deorphanisation screening and dose-response analysis, a Luciferase-based gene reporter assay (Promega, Leiden, The Nederlands) was used. Briefly, cells were platted on Poly-D-lysine-coated 96-well and transfected with a plasmid containing the CRE-luciferase and a plasmid containing the olfactory receptor. Sixteen hours after transfection, the culture medium was replaced by serum-free EMEM containing the tested compounds at a determined concentration. After four hours of incubation at 37° C. degree, cells were lysed and processed for luminescence measurement. Luminescene emission was recorded. Results were expressed as luciferase activity (Relative […] Unit (RLU)) or as percentage of the response induced by 10 μM of the adenylate cyclase activator Forskolin. An empty plasmid is used as negative control.
In 1998, Krautwurst and collaborators have provided a model system for the study of ligand specificity and structure-function relationships for olfactory receptors (Krautwurst et al., 1998 Cell 95, 917-26). […] Based on their publication, a chimeric OR5A2_variant 1 olfactory receptor was created containing the TM2-TM7 amino acid sequence of OR5A2_variant 1 flanked by the N-teminal and C-terminal sequence of the olfactory receptor OR2A5 (cf. SEQ ID NO: 12). This chimeric OR5A2_variant 1 receptor shared 86 percent identity with the native OR5A2_variant 1 receptor (FIG. 6A and SEQ ID NO: 10).
(§4) To test if the amino acids substitution could impact the musk sensitivity, and specificity and to validate the Krautwurst's model, luciferase assays were performed as described previously after transfection of the chimeric OR5A2_variant 1. Cells were treated with semi-logarithmic serial dilutions of musk compounds from the four structurally different groups described earlier.

chimeric OR5A2_variant 1 = target: T2, chimeric OR5A2_variant 1 (Homo sapiens, UniProt Q8NGI9, F293L/H55R/I289L/M58T); assay: Luciferase reporter concentration-response analysis on chimeric OR5A2_variant 1; settings: CRE-luciferase; empty vector pEFIBRHO as control
T2 construct: expressed in transfected cells; host or cells: HEK293T-RTP1A1/RTP2
T2 sequence (Q8NGI9 with tags, fused parts or gaps H55R/M58T/I289L/F293L): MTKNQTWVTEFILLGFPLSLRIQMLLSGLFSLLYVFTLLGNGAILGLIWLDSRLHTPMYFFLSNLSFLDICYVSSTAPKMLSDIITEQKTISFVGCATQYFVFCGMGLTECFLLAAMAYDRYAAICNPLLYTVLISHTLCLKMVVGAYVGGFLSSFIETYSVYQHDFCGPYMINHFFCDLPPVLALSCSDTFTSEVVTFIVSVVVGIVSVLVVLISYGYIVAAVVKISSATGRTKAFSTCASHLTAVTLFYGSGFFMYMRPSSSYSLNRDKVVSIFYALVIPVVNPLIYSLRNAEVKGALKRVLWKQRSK
Experimental: HEK293T-RTP1A1/RTP2 cells were maintained in minimal essential medium (EMEM, Lonza) containing 10% fetal bovine serum (M10). These cells were generated by transfecting HEK293T with an expression vector containing the sequences of the chaperone proteins RTP1A1 and RTP2 and a resistance gene to puromycin, using Lipofectamine 2000.
as §1, §2, §3, §4
In each experiment, an empty vector was used as negative control (pEFIBRHO).

OR11A1 = target: T3, OR11A1 (Homo sapiens, UniProt Q9GZK7); assay: Luciferase reporter concentration-response analysis on OR11A1
T3 construct: expressed in transfected cells; host or cells: HEK293T-RTP1A1/RTP2
T3 sequence (Q9GZK7 1-315): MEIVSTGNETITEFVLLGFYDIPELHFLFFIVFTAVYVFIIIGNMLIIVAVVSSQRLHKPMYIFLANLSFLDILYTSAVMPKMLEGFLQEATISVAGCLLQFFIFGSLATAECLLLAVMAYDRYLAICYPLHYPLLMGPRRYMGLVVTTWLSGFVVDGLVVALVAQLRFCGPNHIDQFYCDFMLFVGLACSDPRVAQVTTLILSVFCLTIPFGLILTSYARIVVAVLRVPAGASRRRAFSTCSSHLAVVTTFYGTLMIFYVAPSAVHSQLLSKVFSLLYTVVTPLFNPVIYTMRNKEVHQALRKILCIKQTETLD

Compound	activation of OR2A5, concentration-response (OR2A5)	activation of chimeric OR5A2_variant 1, concentration-response (chimeric OR5A2_variant 1)	EC50 (OR11A1) [nM]
O=C1CCC/C=C\CCCCCCCCCC1 [Velvione]	but not the OR2A5	shows dose response curves	
CC(=O)c1c(C)c([N+](=O)[O-])c(C(C)(C)C)c([N+](=O)[O-])c1C [Musk Ketone, 4-tert-butyl-2,6-dimethyl-3,5-dinitroacetophenone]	but not the OR2A5	shows dose response curves	
Cc1c([N+](=O)[O-])c(C)c([N+](=O)[O-])c(C(C)(C)C)c1[N+](=O)[O-] [Musk Xylene, 1-tert-butyl-3,5-dimethyl-2,4,6-trinitrobenzene]	but not the OR2A5	shows dose response curves	1860
